Measurements published in patent US8198462B2, “Dendritic photoactive compound comprising oxime ester and method for preparing the same” (LG Chem, Ltd., priority 2007, dated 2012).

Assay: Solubility of the photoinitiator in frequently used organic solvents
Type: physicochemical
Settings: for Solubility in 3-MBA: solvent 3-methoxybutyl acetate (MBA); for Solubility in CH: solvent cyclohexanone (CH); for Solubility in DPM: solvent dipropylene glycol methyl ether (DPM); for Solubility in EEP: solvent ethyl-3-ethoxy propionate (EEP); for Solubility in PGMEA: solvent propylene glycol methyl ether acetate (PGMEA)
Protocol: For the comparison of the solubility of the compound that comprises oxime ester, in conjunction with Irgacure OXE-02 (Comparative Example 1) of Ciba Specialty Chemical, the solubilities of the compounds of Examples were measured in respects to the solvents that were frequently used, such as propylene glycol methyl ether acetate (PGMEA), dipropylene glycol methyl ether (DPM), 3-methoxybutyl acetate (MBA), ethyl-3-ethoxy propionate (EEP), and cyclohexanone (CH). The solubility was measured on the basis of how many grams of the photoinitiator were dissolved in 100 g of the solvent, and the results are described in the following Table 1.

| SMILES | Solubility in 3-MBA | Solubility in DPM | Solubility in EEP | Solubility in CH | Solubility in PGMEA |
| --- | --- | --- | --- | --- | --- |
| CCn1c2ccc(C(=O)c3ccccc3C)cc2c2cc(/C(C)=N/OC(C)=O)ccc21 [Comparative Example 1, reference compound] | 10 grams in 100 g of the solvent | 5 grams in 100 g of the solvent | 10 grams in 100 g of the solvent | 40 grams in 100 g of the solvent | 12 grams in 100 g of the solvent |
| CC(=O)O/N=C(\CC(c1ccc(C(C/C(=N\OC(C)=O)c2ccccc2)N(OC(C)=O)C(C)=O)cc1)N(OC(C)=O)C(C)=O)c1ccccc1 (stereo not drawn) [Example 1] | 50 or more grams in 100 g of the solvent | 50 or more grams in 100 g of the solvent | 50 or more grams in 100 g of the solvent | 100 or more grams in 100 g of the solvent | 100 or more grams in 100 g of the solvent |
| CSc1ccc(C(C/C(=N\OC(C)=O)c2ccc(/C(CC(c3ccc(SC)cc3)N(OC(C)=O)C(C)=O)=N/OC(C)=O)cc2)N(OC(C)=O)C(C)=O)cc1 (stereo not drawn) [Example 2] | 50 or more grams in 100 g of the solvent | 50 or more grams in 100 g of the solvent | 50 or more grams in 100 g of the solvent | 100 or more grams in 100 g of the solvent | 100 or more grams in 100 g of the solvent |

The next lines start with results.

| Solubility in 3-MBA | Solubility in DPM | Solubility in EEP | SMILES | Solubility in CH | Solubility in PGMEA |
| --- | --- | --- | --- | --- | --- |
| 50 or more grams in 100 g of the solvent | 50 or more grams in 100 g of the solvent | 50 or more grams in 100 g of the solvent | CCn1c2ccc(/C(CC(c3ccccc3)N(OC(C)=O)C(C)=O)=N/OC(C)=O)cc2c2cc(/C(CC(c3ccccc3)N(OC(C)=O)C(C)=O)=N/OC(C)=O)ccc21 (stereo not drawn) [Example 3] | 100 or more grams in 100 g of the solvent | 100 or more grams in 100 g of the solvent |
| 30 grams in 100 g of the solvent | 25 grams in 100 g of the solvent | 30 grams in 100 g of the solvent | CCn1c2ccc(/C(CC(c3cccs3)N(OC(C)=O)C(C)=O)=N/OC(C)=O)cc2c2cc(/C(CC(c3cccs3)N(OC(C)=O)C(C)=O)=N/OC(C)=O)ccc21 (stereo not drawn) [Example 4] | 100 or more grams in 100 g of the solvent | 100 or more grams in 100 g of the solvent |
| 50 or more grams in 100 g of the solvent | 50 or more grams in 100 g of the solvent | 50 or more grams in 100 g of the solvent | CCn1c2ccc(/C(CC(c3ccc(SC)cc3)N(OC(C)=O)C(C)=O)=N/OC(C)=O)cc2c2cc(/C(CC(c3ccc(SC)cc3)N(OC(C)=O)C(C)=O)=N/OC(C)=O)ccc21 (stereo not drawn) [Example 5] | 100 or more grams in 100 g of the solvent | 100 or more grams in 100 g of the solvent |
